According to patent US20060264372A1, “Process for the synchronization of ovulation for timed breeding without heat detection” (priority 2003, published 2006):

Key:
postpartum sows = experiment: Timed deslorelin injection 96 hours post-weaning and single timed insemination without estrus detection (Example 3); format: in vivo, swine; conditions: 50 mcg in SAIB 96 hours post-weaning
Method: Approximately 170 postpartum sows were randomly divided into two equal groups comprised of controls and treated. Following weaning, the controls were detected for estrus and bred following the normal standard operating procedures for the farms on which they resided. The treated sows received a 50 mcg dose of deslorelin in SAIB at 96 hours post-weaning and were bred with a single insemination 28±2 hours later with no regard to estrus detection. The sows were examined for pregnancy by ultrasound at 21 days and slaughtered around 28 days post breeding. The entire reproductive tract was removed and corpora lutea and embryos were counted.

mature postpartum sows = experiment: Intravulvar deslorelin at estrus detection in mature postpartum sows, AI breeding (Example 2); format: in vivo, swine; conditions: per litter; 50 μg intravulvar at first estrus detection
Method: Sows were assigned randomly in blocks of two to either control or to be injected intravulvar with 50 mcg of deslorelin in SAIB at the time of estrus detection for sows first detected in estrus in the a.m. and 12 hours later for those first detected in estrus in the p.m. Treated animals were bred AI upon detected estrus and again 24 hours later if still in estrus. Controls received a saline injection on first detected estrus behavior estrus detection and were bred according to the farm's normal procedures. Saline sows bred at detected estrus consistent with farm sows. Deslorelin sows injected intravulvar with 1 ml (50 μg deslorelin acetate) at first estrus detection and AI, then AI again if in estrus the next day. Live piglet number 0.6> in Deslorelin versus Saline sows.

Q: What does the source list for `CCNC(=O)[C@@H]1CCCN1C(=O)[C@H](CCCN=C(N)N)NC(=O)[C@H](CC(C)C)NC(=O)[C@@H](Cc1c[nH]c2ccccc12)NC(=O)[C@H](Cc1ccc(O)cc1)NC(=O)[C@H](CO)NC(=O)[C@H](Cc1c[nH]c2ccccc12)NC(=O)[C@H](Cc1cnc[nH]1)NC(=O)[C@@H]1CCC(=O)N1` [Deslorelin, deslorelin]?
A: Embryo Survival (postpartum sows): 64%; Sows Pregnant (postpartum sows; single insemination 28±2 hours later, 84 in group): 60; Live piglet number, greater versus Saline sows (mature postpartum sows): 0.6
